According to patent US20230024302A1, “2,3,5-TRISUBSTITUTED PYRAZOLO[1,5-A]PYRIMIDINE COMPOUNDS” (Arcus Biosciences, Inc., priority 2019, published 2023):

What was measured:
[1] = target: T1, PI3Kγ (p120γ) (Homo sapiens, UniProt P48736); assay: Inhibition of PI3K kinase activity (ADP Glo), PI3Kγ; conditions: Table 1, p120γ, read-out: biochemical potency (PI3Kγ IC50)
T1 construct: purchased Promega V1761
Protocol: Compounds were evaluated to determine the potency with which they inhibited the kinase activity of the Class I PI3K subunits p110α/p85α (Promega, Cat #V1721), p110β/p85α (Promega, Cat #V1751), p120γ (Promega, Cat #V1761) and p110δ/p85α (Promega, Cat #V1771). Activity was determined as a function of ADP (adenosine diphosphate) generated from ATP consumed during the phosphorylation of Phosphatidylinositol 4,5-bisphosphate (PIP2) (Promega, Cat #V1701) to yield Phosphatidylinositol (3,4,5)-trisphosphate (PIP3). ADP levels in the assay mixture at the end of the reaction were quantitated using ADP Glo (Promega, Cat #V9103) according to the manufacturer's recommended protocol.
Enzyme was prepared for each of the PI3K subunits in 100 mM HEPES, pH 7.4, 100 mM NaCl, 6 mM MgCl2 and 0.05% BSA. p110α/p85α was prepared at 2 nM (2×), p110β/p85α was prepared at 7 nM (2×), p120γ was prepared at 8 nM (2×) and p110δ/p85α was prepared at 2 nM (2×). Five microliters of 2× enzyme dilution of each PI3K subunit were added to a 384-well white Opti-plates pre-dispensed with compound and allowed to incubate for 1 h at rt. A substrate mix containing 0.1 mg/ml (2×) of PIP2 and 50 μM (2×) ATP (Promega, Cat #V915) was prepared in 25 mM HEPES and 0.5 mM EGTA. Reactions were initiated by addition of 5 μl of 2× substrate mix to each well of the plates containing various PI3K isoforms and allowed to proceed for 60 min at rt. Ten microliters of ADP Glo reagent 1 were added to the wells of each plate and allowed to incubate at rt for 45 min according to the manufacturer's directions. Following incubation, 20 μl of ADP Glo reagent 2 was added to each plate and allowed to incubate for an additional 45 min. Luminescent signal, generated by ADP Glo, was quantified by reading on a Perkin Elmer Envision multimode reader. Compound potencies (IC50's) were determined using a standard 4-parameter fit non-linear regression fit.

[2] = target: T2, PI3Kγ (Homo sapiens, UniProt P48736); assay: PI3Kγ cellular assay in THP-1 cells (AKT pS473 AlphaLISA); type: cell-based; conditions: Table 1, rhMCP-1 stimulated AKT pS473, read-out: cellular potency (PI3Kγ IC50)
T2 construct: host or cells: THP-1
T2 sequence (P48736 whole entry): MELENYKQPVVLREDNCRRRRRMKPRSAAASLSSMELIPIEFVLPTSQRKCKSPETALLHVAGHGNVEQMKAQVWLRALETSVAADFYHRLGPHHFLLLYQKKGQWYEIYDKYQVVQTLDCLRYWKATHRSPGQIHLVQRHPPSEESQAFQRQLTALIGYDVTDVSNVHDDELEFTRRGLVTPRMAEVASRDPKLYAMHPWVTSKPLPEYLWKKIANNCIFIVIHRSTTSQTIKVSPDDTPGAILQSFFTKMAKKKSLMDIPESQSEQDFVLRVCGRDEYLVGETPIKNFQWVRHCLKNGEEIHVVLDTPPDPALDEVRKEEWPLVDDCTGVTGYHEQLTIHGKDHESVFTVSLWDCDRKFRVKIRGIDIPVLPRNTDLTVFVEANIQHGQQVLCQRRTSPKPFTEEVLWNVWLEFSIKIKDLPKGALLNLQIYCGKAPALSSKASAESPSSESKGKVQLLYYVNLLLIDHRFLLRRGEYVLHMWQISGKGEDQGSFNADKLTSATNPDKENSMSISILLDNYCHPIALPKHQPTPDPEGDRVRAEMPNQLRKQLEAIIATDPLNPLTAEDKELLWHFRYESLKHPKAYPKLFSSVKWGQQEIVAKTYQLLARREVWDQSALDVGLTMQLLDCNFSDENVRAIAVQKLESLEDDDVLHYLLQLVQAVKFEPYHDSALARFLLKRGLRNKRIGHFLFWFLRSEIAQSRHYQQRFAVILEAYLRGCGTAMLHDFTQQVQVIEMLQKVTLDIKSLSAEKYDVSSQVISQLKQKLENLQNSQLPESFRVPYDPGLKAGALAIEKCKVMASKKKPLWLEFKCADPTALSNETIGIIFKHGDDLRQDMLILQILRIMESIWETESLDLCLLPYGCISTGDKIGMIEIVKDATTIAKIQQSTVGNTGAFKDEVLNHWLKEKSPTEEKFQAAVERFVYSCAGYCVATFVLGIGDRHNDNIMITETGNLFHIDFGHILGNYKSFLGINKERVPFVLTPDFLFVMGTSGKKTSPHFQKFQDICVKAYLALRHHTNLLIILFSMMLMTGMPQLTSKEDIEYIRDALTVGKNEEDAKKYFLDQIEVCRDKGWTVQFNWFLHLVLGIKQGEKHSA
Protocol: Twenty microliters of serum starved THP-1 cells were added to the compound plate in serum free DMEM at a density of 9×10^6 cells per ml. Final assay conditions comprised 1.8×10^5 THP-1 cells per well with test compounds in 2% DMSO across a concentration range from 4 nM to 30 μM. […] Briefly, 10 μL of 4× lysis buffer was added to cells after stimulation. Following 60 min incubation at rt, 10 μL of cell lysate was transferred to a fresh 384-well Opti-plate to which 5 μL of AlphaLisa acceptor beads and 5 μL of AlphaLisa donor beads had been added. […] PI3Kγ activity was evaluated as a correlate of endogenous AKT phosphorylation levels. Percentage maximum activity in each test well was calculated based on DMSO (100% activity) and positive control treated cell wells (0% activity). The potencies (IC50's) of test compounds were determined using a standard 4-parameter fit non-linear regression fit.

T1 sequence (P48736 whole entry): as above

SMILES	IC50 [1] [nM]	IC50 [2] [nM]
C[C@@H](C1CC1)N1Cc2cc(-c3ccn4nc(N)c(C(=O)NC5CC5)c4n3)cc(OC(F)(F)F)c2C1=O [Example 20, 2-Amino-N-cyclopropyl-5-{2-[(1S)-1-cyclopropylethyl]-1-oxo-7-(trifluoromethoxy)-2,3-dihydro-1H-isoindol-5-yl}pyrazolo[1,5-a]pyrimidine-3-carboxamide]	< 100	< 100
C[C@@H](C1CC1)N1Cc2cc(-c3ccn4nc(N)c(C(=O)NC5COC5)c4n3)cc(OC(F)(F)F)c2C1=O [Example 21, 2-Amino-5-{2-[(1S)-1-cyclopropylethyl]-1-oxo-7-(trifluoromethoxy)-2,3-dihydro-1H-isoindol-5-yl}-N-(oxetan-3-yl)pyrazolo[1,5-a]pyrimidine-3-carboxamide]	< 100	< 100
C[C@H](CO)NC(=O)c1c(N)nn2ccc(-c3cc4c(c(OC(F)(F)F)c3)C(=O)N([C@@H](C)C3CC3)C4)nc12 [Example 22, 2-Amino-5-{2-[(1S)-1-cyclopropylethyl]-1-oxo-7-(trifluoromethoxy)-2,3-dihydro-1H-isoindol-5-yl}-N-[(2R)-1-hydroxypropan-2-yl]pyrazolo[1,5-a]pyrimidine-3-carboxamide]	< 100	< 100
C[C@@H](C1CC1)N1Cc2cc(-c3ccn4nc(N)c(C(=O)N[C@H]5C[C@@](C)(O)C5)c4n3)cc(OC(F)(F)F)c2C1=O [Example 23, 2-Amino-5-{2-[(1S)-1-cyclopropylethyl]-1-oxo-7-(trifluoromethoxy)-2,3-dihydro-1H-isoindol-5-yl}-N-[cis-3-hydroxy-3-methylcyclobutyl]pyrazolo[1,5-a]pyrimidine-3-carboxamide]	< 100	< 100
C[C@@H](C1CC1)N1Cc2cc(-c3ccn4nc(N)c(C(=O)N[C@H]5CC[C@@](C)(O)CC5)c4n3)cc(OC(F)(F)F)c2C1=O [Example 24, 2-Amino-5-{2-[(1S)-1-cyclopropylethyl]-1-oxo-7-(trifluoromethoxy)-2,3-dihydro-1H-isoindol-5-yl}-N-[cis-4-hydroxy-4-methylcyclohexyl]pyrazolo[1,5-a]pyrimidine-3-carboxamide]	< 100	< 100
CC(C)[C@H](CO)NC(=O)c1c(N)nn2ccc(-c3cc4c(c(OC(F)(F)F)c3)C(=O)N([C@@H](C)C3CC3)C4)nc12 [Example 25, 2-Amino-5-{2-[(1S)-1-cyclopropylethyl]-1-oxo-7-(trifluoromethoxy)-2,3-dihydro-1H-isoindol-5-yl}-N-[(2R)-1-hydroxy-3-methylbutan-2-yl]pyrazolo[1,5-a]pyrimidine-3-carboxamide]	< 100	< 100
C[C@@H](C1CC1)N1Cc2cc(-c3ccn4nc(N)c(C(=O)N[C@@H](CO)C5CC5)c4n3)cc(OC(F)(F)F)c2C1=O [Example 26, 2-Amino-N-[(1R)-1-cyclopropyl-2-hydroxyethyl]-5-{2-[(1S)-1-cyclopropylethyl]-1-oxo-7-(trifluoromethoxy)-2,3-dihydro-1H-isoindol-5-yl}pyrazolo[1,5-a]pyrimidine-3-carboxamide]	< 100	< 100
C[C@H](CO)NC(=O)c1c(N)nn2ccc(-c3cc4c(c(OC(F)(F)F)c3)C(=O)N([C@@H](C)C(F)(F)F)C4)nc12 [Example 27, 2-Amino-N-[(2R)-1-hydroxypropan-2-yl]-5-[1-oxo-7-(trifluoromethoxy)-2-[(2S)-1,1,1-trifluoropropan-2-yl]-2,3-dihydro-1H-isoindol-5-yl]pyrazolo[1,5-a]pyrimidine-3-carboxamide]	< 100	< 100
C[C@@H](C1CC1)N1Cc2cc(-c3ccn4nc(N)c(C(=O)N[C@H]5CNC(=O)C5)c4n3)cc(OC(F)(F)F)c2C1=O [Example 28, 2-Amino-5-{2-[(1S)-1-cyclopropylethyl]-1-oxo-7-(trifluoromethoxy)-2,3-dihydro-1H-isoindol-5-yl}-N-[(3R)-5-oxopyrrolidin-3-yl]pyrazolo[1,5-a]pyrimidine-3-carboxamide]	< 100	< 100
C[C@@H](C1CC1)N1Cc2cc(-c3ccn4nc(N)c(C(=O)N[C@H]5CCC[C@@H](O)C5)c4n3)cc(OC(F)(F)F)c2C1=O [Example 29, 2-Amino-5-{2-[(1S)-1-cyclopropylethyl]-1-oxo-7-(trifluoromethoxy)-2,3-dihydro-1H-isoindol-5-yl}-N-[(1S,3R)-3-hydroxycyclohexyl]pyrazolo[1,5-a]pyrimidine-3-carboxamide]	< 100	< 100
C[C@@H](C1CC1)N1Cc2cc(-c3ccn4nc(N)c(C(=O)N[C@H]5CC[C@H](C6(O)CC6)CC5)c4n3)cc(OC(F)(F)F)c2C1=O [Example 30, 2-Amino-5-(2-((S)-1-cyclopropylethyl)-1-oxo-7-(trifluoromethoxy)isoindolin-5-yl)-N-(trans-4-(1-hydroxycyclopropyl)cyclohexyl)pyrazolo[1,5-a]pyrimidine-3-carboxamide]	< 100	< 100
C[C@@H](C1CC1)N1Cc2cc(-c3ccn4nc(N)c(C(=O)N[C@H]5CC[C@H](N)CC5)c4n3)cc(OC(F)(F)F)c2C1=O [Example 31, 2-Amino-5-{2-[(1S)-1-cyclopropylethyl]-1-oxo-7-(trifluoromethoxy)-2,3-dihydro-1H-isoindol-5-yl}-N-[trans-4-aminocyclohexyl]pyrazolo[1,5-a]pyrimidine-3-carboxamide]	< 100	< 100
C[C@@H](C1CC1)N1Cc2cc(-c3ccn4nc(N)c(C(=O)N[C@H]5CCNC5=O)c4n3)cc(OC(F)(F)F)c2C1=O [Example 32, 2-Amino-5-{2-[(1S)-1-cyclopropylethyl]-1-oxo-7-(trifluoromethoxy)-2,3-dihydro-1H-isoindol-5-yl}-N-[(3S)-2-oxopyrrolidin-3-yl]pyrazolo[1,5-a]pyrimidine-3-carboxamide]	< 100	< 100
C[C@@H](C1CC1)N1Cc2cc(-c3ccn4nc(N)c(C(=O)N[C@@H]5CCC[C@H](N)C5)c4n3)cc(OC(F)(F)F)c2C1=O [Example 33, 2-Amino-N-[(1R,3S)-3-aminocyclohexyl]-5-{2-[(1S)-1-cyclopropylethyl]-1-oxo-7-(trifluoromethoxy)-2,3-dihydro-1H-isoindol-5-yl}pyrazolo[1,5-a]pyrimidine-3-carboxamide]	< 100	< 100
C[C@@H](C1CC1)N1Cc2cc(-c3ccn4nc(N)c(C(=O)N[C@@H]5CCC[C@H](N(C)C)C5)c4n3)cc(OC(F)(F)F)c2C1=O [Example 34, 2-Amino-5-{2-[(1S)-1-cyclopropylethyl]-1-oxo-7-(trifluoromethoxy)-2,3-dihydro-1H-isoindol-5-yl}-N-[(1R,3S)-3-(dimethylamino)cyclohexyl]pyrazolo[1,5-a]pyrimidine-3-carboxamide]	< 100	< 100
C[C@@H](C1CC1)N1Cc2cc(-c3ccn4nc(N)c(C(=O)N[C@@H]5CCC[C@H]5O)c4n3)cc(OC(F)(F)F)c2C1=O [Example 35, 2-Amino-5-{2-[(1S)-1-cyclopropylethyl]-1-oxo-7-(trifluoromethoxy)-2,3-dihydro-1H-isoindol-5-yl}-N-[(1R,2R)-2-hydroxycyclopentyl]pyrazolo[1,5-a]pyrimidine-3-carboxamide]	< 100	< 100
C[C@@H](C1CC1)N1Cc2cc(-c3ccn4nc(N)c(C(=O)N[C@H]5CC[C@H](O)C5)c4n3)cc(OC(F)(F)F)c2C1=O [Example 36, 2-Amino-5-{2-[(1S)-1-cyclopropylethyl]-1-oxo-7-(trifluoromethoxy)-2,3-dihydro-1H-isoindol-5-yl}-N-[(1S,3S)-3-hydroxycyclopentyl]pyrazolo[1,5-a]pyrimidine-3-carboxamide]	< 100	< 100
